# Data reported in publication PMC10108742, “Design, synthesis and evaluation of OA-tacrine hybrids as cholinesterase inhibitors with low neurotoxicity and hepatotoxicity against Alzheimer’s disease” (Journal of Enzyme Inhibition and Medicinal Chemistry, 2023).
# Like-named read-outs stand apart in the source and are kept apart here.
# Columns and labels:
# hAChE = molecular target: T1, hAChE (Homo sapiens, UniProt P22303); assay: biochemical
# T1 construct: purchased Sigma Aldrich
# Method: (§1) The capacity of all the target compounds to inhibit hAChE and hBuChE activities were assessed by Ellman’s method. […] Results are expressed as the mean ± SD of at least three different experiments performed in triplicate.
# Buffer was freshly prepared and stored in the refrigerator. […] All solutions were stored in Eppendorf caps in the refrigerator or freezer, if necessary. […] The final concentrations for the enzymatic assay were yielded by diluting the stock solution with bi-distilled water.
# (§2) A mixture of the DTNB solution (160 µL), enzyme solution (50 µL) and compounds solutions (10 µL, 3 different concentrations and once blank water) was prepared and incubated at 37 °C for 10 min. The substrate (30 µL) was added to start the enzymatic reaction. […] All measurements were performed as triplicates.
# hBuChE = molecular target: T2, hBuChE (Homo sapiens, UniProt P06276); assay: hBuChE inhibition, Ellman's method; type: biochemical; settings: hBuChE from human serum, mean ± SD of three experiments
# T2 construct: purchased Sigma Aldrich
# T2 sequence (P06276 29-602): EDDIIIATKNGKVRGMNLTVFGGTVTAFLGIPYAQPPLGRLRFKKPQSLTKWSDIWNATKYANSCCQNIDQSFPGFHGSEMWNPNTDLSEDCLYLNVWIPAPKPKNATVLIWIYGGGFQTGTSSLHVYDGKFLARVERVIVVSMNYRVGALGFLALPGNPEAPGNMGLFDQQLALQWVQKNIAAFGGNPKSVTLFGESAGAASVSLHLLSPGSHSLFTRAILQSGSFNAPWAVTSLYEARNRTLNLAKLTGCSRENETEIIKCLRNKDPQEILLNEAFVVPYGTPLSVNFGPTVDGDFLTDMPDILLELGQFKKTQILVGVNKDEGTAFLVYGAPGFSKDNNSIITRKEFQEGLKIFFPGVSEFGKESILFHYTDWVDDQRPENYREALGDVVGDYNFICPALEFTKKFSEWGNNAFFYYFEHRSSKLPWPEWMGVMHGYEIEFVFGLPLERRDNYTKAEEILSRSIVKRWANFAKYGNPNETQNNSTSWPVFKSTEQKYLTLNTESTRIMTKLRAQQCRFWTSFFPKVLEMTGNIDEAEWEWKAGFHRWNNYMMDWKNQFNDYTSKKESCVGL
# Method: as §1, with “hAChE, hBuChE, Acetylcholinesterase Activity Assay Kit and Butyrylcholinesterase Activity Assay Kit were purchased from Sigma Aldrich. […] The” for “The”
# Preparation of 50 mM Tris–HCl buffer solutions: 5 ml Tris solution (1 M, Ph 8.5, Beyotime Biotechnology) was dissolved in distilled water (95 ml) and adjusted with HCl to a pH of 8.0 ± 0.1. Buffer was freshly prepared and stored in the refrigerator. […] All solutions were stored in Eppendorf caps in the refrigerator or freezer, if necessary. […] The final concentrations for the enzymatic assay were yielded by diluting the stock solution with bi-distilled water.
# as §2
# SH-SY5Y cells = assay: Cell viability in SH-SY5Y cells, CCK-8 assay; settings: 24 h
# Method: (§3) Figure 5. Effects of various concentrations of compounds on cell viability in SH-SY5Y cells and HepG2 cells after treatment for 24 h. Cell viability was measured by CCK-8 assay. Data were shown as mean ± SD of three independent experiments.
# (§4) HepG2 and SH-SY5Y cells were obtained from the Cell Bank of Shanghai Institute of Biochemistry and Cell Biology, Chinese Academy of Sciences (Shanghai, China). HepG2 and SH-SY5Y cells were cultured in MEM or MEM/F12 supplemented with 10% FBS, 100 units mL^−1 penicillin/streptomycin and maintained in a humidified atmosphere of 5% CO2 at 37 °C. Initially, 8000 cells per well were seeded in 96-well plates for HepG2 or SH-SY5Y cells, then treated with vehicle alone or tested compounds for 24 h. Then 10 μL CCK8 purchased from CELLCOOK was added to each well and further incubated for another 3 h. The absorbance was measured using a microplate reader (450 nm).
# HepG2 cells [1] = assay: Cell viability in HepG2 cells, CCK-8 assay; settings: 24 h
# Method: as §3, §4
# HepG2 cells [2] = assay: Apoptosis in HepG2 cells, AnnexinV/PI double staining, flow cytometry; settings: 50 μM, 24 h, control group 4.34%
# Method: Figure 6. […] Apoptotic cells detected by flow cytometry after AnnexinV and PI double staining.
# Annexin V-FITC and propidium iodide were used to evaluate apoptotic cells by flow cytometry. Cells were treated with different concentrations of tested compounds for 24 h. Then the cells were washed twice with phosphate-buffered saline (PBS) (centrifugation at 2000 rpm, 5 min). The collected cells were then resuspended in 500 μL of binding buffer. After stained with 5 μL AnnexinV-FITC and 5 μL propidium iodide at room temperature for 15 min. Cells were then analysed by BD Accuri C6 flow cytometer with cell quest software (Becton & Dickinson Company, Franklin Lakes, NJ). Cells undergoing apoptosis are both Annexin V positive and PI negative.
# HepG2 cells [3] = assay: Intracellular ROS production in HepG2 cells, DCFH-DA, flow cytometry; settings: 50 μM, compared with control / tacrine group
# Method: The percentage of cells for ROS was stained with DCFH-DA and the stained cells were immediately determined by flow cytometry.
# The level of intracellular ROS was measured by using the ROS-sensitive dye, 2′,7′-dichloro-fluorescein diacetate (DCFH-DA), as a probe. In brief, cells were seeded in six-well plates at 2.0 × 10^5 cells/well, treating with different tested compounds for 24 h, and then washed three times and incubated with final concentration of 10 μM DCFH-DA for 30 min at 37 °C in the dark. After incubation, cells were washed three times and harvested in free-serum medium. […] Data were processed by using cell quest software (Becton & Dickinson Company, Franklin Lakes, NJ).
# [4] = hAChE from human erythrocytes, mean ± SD of three experiments
# T1 sequence (P22303 32-614): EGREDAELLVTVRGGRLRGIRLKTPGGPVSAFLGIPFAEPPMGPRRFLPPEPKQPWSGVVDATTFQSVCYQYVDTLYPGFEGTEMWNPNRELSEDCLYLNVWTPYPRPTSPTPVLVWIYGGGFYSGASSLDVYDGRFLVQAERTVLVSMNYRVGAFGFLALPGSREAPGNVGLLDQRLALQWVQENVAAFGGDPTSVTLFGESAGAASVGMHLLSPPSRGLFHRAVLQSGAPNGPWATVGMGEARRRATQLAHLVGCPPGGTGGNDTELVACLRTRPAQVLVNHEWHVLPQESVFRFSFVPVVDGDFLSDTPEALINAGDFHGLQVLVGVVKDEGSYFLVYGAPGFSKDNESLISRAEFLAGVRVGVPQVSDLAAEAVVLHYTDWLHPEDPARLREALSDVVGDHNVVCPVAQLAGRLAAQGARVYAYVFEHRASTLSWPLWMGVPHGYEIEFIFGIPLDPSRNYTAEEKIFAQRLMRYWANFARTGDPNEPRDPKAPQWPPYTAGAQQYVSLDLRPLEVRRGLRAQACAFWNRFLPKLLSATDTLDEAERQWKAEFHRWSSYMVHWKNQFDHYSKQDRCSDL
compound,measurement,setting,value
CC1(C)CC[C@]2(C(=O)NCCCCCNc3c4c(nc5ccccc35)CCCC4)CC[C@]3(C)C(=CCC4[C@@]5(C)CC[C@H](O)C(C)(C)C5CC[C@]43C)C2C1 (stereo partly drawn) [Compound A3],IC50,hAChE,0.775 ± 0.28 µM
same,"SI (selectivity index, hBuChE/hAChE)",hAChE,3.59
same,IC50,hBuChE; read-out: IC50 hBuChE,2.78 ± 0.0607 µM
CC1(C)CC[C@]2(C(=O)NCCCCCCNc3c4c(nc5cc(Cl)ccc35)CCCC4)CC[C@]3(C)C(=CCC4[C@@]5(C)CC[C@H](O)C(C)(C)C5CC[C@]43C)C2C1 (stereo partly drawn) [Compound B4],IC50,hAChE,0.0144 ± 0.00189 µM
same,"SI (selectivity index, hBuChE/hAChE)",hAChE,>695.89
same,IC50,hBuChE; IC50 hBuChE,> 10 µM
same,effect on SH-SY5Y cell viability,SH-SY5Y cells; 50 μM,little effect
same,HepG2 cell viability rate,HepG2 cells [1]; 50 μM,close to that of the control group
same,percentage of apoptotic cells,HepG2 cells [2],7.69%
same,intracellular ROS levels (in words),HepG2 cells [3],significantly lower than that in the tacrine group
"CC1(C)CC[C@]2(C(=O)NCCNc3c4c(nc5c(Cl)cccc35)CCCC4)CC[C@]3(C)C(=CCC4[C@@]5(C)CC[C@H](O)C(C)(C)C5CC[C@]43C)C2C1 (stereo partly drawn) [Compound C1, N-(2-((5-chloro-1,2,3,4-tetrahydroacridin-9-yl)amino)ethyl)-olean-12-en-28-amide]",IC50,hAChE,> 10 µM
same,IC50,hBuChE; read-out: IC50 hBuChE,> 10 µM
"CC1(C)CC[C@]2(C(=O)NCCCNc3c4c(nc5c(Cl)cccc35)CCCC4)CC[C@]3(C)C(=CCC4[C@@]5(C)CC[C@H](O)C(C)(C)C5CC[C@]43C)C2C1 (stereo partly drawn) [Compound C2, N-(3-((5-chloro-1,2,3,4-tetrahydroacridin-9-yl)amino)propyl)-olean-12-en-28-amide]",IC50,hAChE,> 10 µM
same,IC50,hBuChE; read-out: IC50 hBuChE,> 10 µM
"CC1(C)CC[C@]2(C(=O)NCCNc3c4c(nc5cc(Br)ccc35)CCCC4)CC[C@]3(C)C(=CCC4[C@@]5(C)CC[C@H](O)C(C)(C)C5CC[C@]43C)C2C1 (stereo partly drawn) [Compound D1, N-(2-((6-bromo-1,2,3,4-tetrahydroacridin-9-yl)amino)ethyl)-olean-12-en-28-amide]",IC50,hAChE,> 10 µM
same,IC50,hBuChE; read-out: IC50 hBuChE,> 10 µM
CC1(C)CC[C@]2(C(=O)NCCCNc3c4c(nc5c(Br)cccc35)CCCC4)CC[C@]3(C)C(=CCC4[C@@]5(C)CC[C@H](O)C(C)(C)C5CC[C@]43C)C2C1 (stereo partly drawn) [Compound E2],IC50,hAChE; [4],> 10 µM
same,IC50,hBuChE; IC50 hBuChE,> 10 µM
"CC1(C)CC[C@]2(C(=O)NCCCCCCNc3c4c(nc5c(Br)cccc35)CCCC4)CC[C@]3(C)C(=CCC4[C@@]5(C)CC[C@H](O)C(C)(C)C5CC[C@]43C)C2C1 (stereo partly drawn) [Compound E5, N-(6-((5-bromo-1,2,3,4-tetrahydroacridin-9-yl)amino)hexyl)-olean-12-en-28-amide]",IC50,hAChE,> 10 µM
same,IC50,hBuChE; read-out: IC50 hBuChE,> 10 µM
"CC1(C)CC[C@]2(C(=O)NCCNc3c4c(nc5cc(F)ccc35)CCCC4)CC[C@]3(C)C(=CCC4[C@@]5(C)CC[C@H](O)C(C)(C)C5CC[C@]43C)C2C1 (stereo partly drawn) [Compound F1, N-(2-((6-fluoro-1,2,3,4-tetrahydroacridin-9-yl)amino)ethyl)-olean-12-en-28-amide]",IC50,hAChE,> 10 µM
same,IC50,hBuChE; read-out: IC50 hBuChE,> 10 µM
CC1(C)CC[C@]2(C(=O)NCCCNc3c4c(nc5cc(F)ccc35)CCCC4)CC[C@]3(C)C(=CCC4[C@@]5(C)CC[C@H](O)C(C)(C)C5CC[C@]43C)C2C1 (stereo partly drawn) [Compound F2],IC50,hAChE,> 10 µM
same,IC50,hBuChE; IC50 hBuChE,> 10 µM
"CC1(C)CC[C@]2(C(=O)NCCCCNc3c4c(nc5cc(F)ccc35)CCCC4)CC[C@]3(C)C(=CCC4[C@@]5(C)CC[C@H](O)C(C)(C)C5CC[C@]43C)C2C1 (stereo partly drawn) [Compound F3, N-(4-((6-fluoro-1,2,3,4-tetrahydroacridin-9-yl)amino)butyl)-olean-12-en-28-amide]",IC50,hAChE; [4],> 10 µM
same,IC50,hBuChE; IC50 hBuChE,> 10 µM
CC1(C)CC[C@]2(C(=O)NCCCNc3c4c(nc5c(F)cccc35)CCCC4)CC[C@]3(C)C(=CCC4[C@@]5(C)CC[C@H](O)C(C)(C)C5CC[C@]43C)C2C1 (stereo partly drawn) [Compound G2],IC50,hAChE,> 10 µM
same,"SI (selectivity index, hBuChE/hAChE)",hAChE,<0.09
same,IC50,hBuChE; IC50 hBuChE,0.921 ± 0.0587 µM
"CC1(C)CC[C@]2(C(=O)NCCCCCNc3c4c(nc5c(F)cccc35)CCCC4)CC[C@]3(C)C(=CCC4[C@@]5(C)CC[C@H](O)C(C)(C)C5CC[C@]43C)C2C1 (stereo partly drawn) [Compound G4, N-(5-((5-fluoro-1,2,3,4-tetrahydroacridin-9-yl)amino)pentyl)-olean-12-en-28-amide]",IC50,hAChE,> 10 µM
same,"SI (selectivity index, hBuChE/hAChE)",hAChE,<0.16
same,IC50,hBuChE; read-out: IC50 hBuChE,1.6 ± 0.0904 µM
"CC1(C)CC[C@]2(C(=O)NCCCCCCNc3c4c(nc5c(F)cccc35)CCCC4)CC[C@]3(C)C(=CCC4[C@@]5(C)CC[C@H](O)C(C)(C)C5CC[C@]43C)C2C1 (stereo partly drawn) [Compound G5, N-(6-((5-fluoro-1,2,3,4-tetrahydroacridin-9-yl)amino)hexyl)-olean-12-en-28-amide]",IC50,hAChE,> 10 µM
same,"SI (selectivity index, hBuChE/hAChE)",hAChE,<0.38
same,IC50,hBuChE; read-out: IC50 hBuChE,3.81 ± 1.04 µM
Nc1c2c(nc3ccccc13)CCCC2 [Tacrine],cytotoxicity to SH-SY5Y cells (cell viability),SH-SY5Y cells; 50–100 μM,cytotoxic
same,cytotoxicity to HepG2 cells (cell viability),HepG2 cells [1]; 50–100 μM,cytotoxic
same,percentage of apoptotic cells,HepG2 cells [2],18.90%
same,intracellular ROS levels (in words),HepG2 cells [3],significant hepatotoxicity
